What all share (format): ADME, organism-based
Data set [1] can be described thus: Oral bioavailability in Sprague-Dawley rat 2 mg/kg. The note with it: in vivo.
Data set [2] can be described thus: Half life in Sprague-Dawley rat at 1 mg/kg, iv and 2 mg/kg, po. The note with it: in vivo.
The next data set concerns Rattus norvegicus. Nature of the data set: Dose normalized AUC in Sprague-Dawley rat 2 mg/kg, po. Also noted: dose 2 mg/kg, route oral. The note with it: in vivo.
Data set [3] can be described thus: Clearance in Sprague-Dawley rat at 1 mg/kg, iv and 2 mg/kg, po. The note with it: in vivo.
A short description of data set [4]: Volume of distribution at steady state in Sprague-Dawley rat at 1 mg/kg, iv and 2 mg/kg, po. The note with it: in vivo, read-out: Vdss.

The bioavailability is dose-corrected exposure relative to a reference, in per cent. Higher therefore signals good availability. The half-life is the time needed for the level to fall by half in the phase considered. Read a high half-life as slow loss. Regarding `O=C1OCc2cc(CCN3CCN(C(=O)Cc4ccc(-n5cnnn5)cc4)CC3)ccc21`, the bioavailability in data set [1] worked out at 33%. For the same compound, the half-life in data set [2] was 37.2 min. The same compound came in with an AUC/dose with Rattus norvegicus of 0.34 µM·kg·h/mg. Besides, the clearance in data set [3] was 40 mL/min/kg. Moreover, the Vd in data set [4] came to 0.66 L/kg.

In turn, `O=C1OCCc2cc(CCN3CCN(C(=O)Cc4ccc(-n5cnnn5)cc4)CC3)ccc21` showed a bioavailability in data set [1] of 52%. Moreover, in data set [2], the half-life was 30 min. The AUC/dose with Rattus norvegicus was 0.48 µM·kg·h/mg. In addition, the clearance in data set [3] was 43 mL/min/kg. The Vd in data set [4] is 1.3 L/kg.

Values taken from ChEMBL document CHEMBL2439970 (Bioorg Med Chem Lett, 2013).
